Results reported in paper PMC3004533 (Chemico-biological interactions, 2010).

Target: T1, COX-2 (cyclooxygenase-2) (Homo sapiens, UniProt P35354)
T1 sequence (P35354 18-604): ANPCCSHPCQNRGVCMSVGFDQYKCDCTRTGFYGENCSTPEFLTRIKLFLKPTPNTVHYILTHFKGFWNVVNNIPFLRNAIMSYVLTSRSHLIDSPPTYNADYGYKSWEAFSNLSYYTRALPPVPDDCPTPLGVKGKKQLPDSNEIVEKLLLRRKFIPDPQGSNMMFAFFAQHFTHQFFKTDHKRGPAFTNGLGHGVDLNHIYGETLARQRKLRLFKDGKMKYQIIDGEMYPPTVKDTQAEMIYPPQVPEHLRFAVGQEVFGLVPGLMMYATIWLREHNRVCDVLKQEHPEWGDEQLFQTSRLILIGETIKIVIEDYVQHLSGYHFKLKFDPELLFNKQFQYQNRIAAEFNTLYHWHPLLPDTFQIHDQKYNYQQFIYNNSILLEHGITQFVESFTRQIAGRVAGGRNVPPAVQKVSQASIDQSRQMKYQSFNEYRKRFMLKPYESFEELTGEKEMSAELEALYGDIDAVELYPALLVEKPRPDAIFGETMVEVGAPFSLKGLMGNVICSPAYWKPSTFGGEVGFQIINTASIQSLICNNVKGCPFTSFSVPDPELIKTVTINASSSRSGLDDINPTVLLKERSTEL
Type: biochemical
Settings: read-out: Ki

With Cc1ccc(-c2cc(C[Se]C#N)nn2-c2ccc(S(N)(=O)=O)cc2)cc1 [selenocoxib-2, 4-(3-Selenocyanatomethyl-5-p-tolyl-1-yl)-benzenesulfonamide] the KI (inactivation) was 0.73 µM.
Compound C[Se]Cc1ccc(-c2cc(C(F)(F)F)nn2-c2ccc(S(N)(=O)=O)cc2)cc1 [selenocoxib-3, 4-[5-(4-Methylseleanylmethyl-phenyl)-3-trifluoromethyl-pyrazol-1-yl]-benezenesulfonamide] has a KI (inactivation) of 2.4 µM.
